Test results taken from PMC10374108, “Structural and biochemical characterization of the key components of an auxin degradation operon from the rhizosphere bacterium Variovorax” (PLOS Biology, 2023).
Values joined by “and” are separate entries in the source; they are usually repeats but may differ in a detail not shown here. Identical values can stand only once. “Also recorded” adds a separate entry of the source. Like-named read-outs stand apart in the source and are kept apart here.

Legend:
IadH = IadH (Variovorax paradoxus, UniProt A0A0H2LZB5); experiment: ITC, IAA binding to IadH; set-up: species or system Variovorax paradoxus CL14
Chain of IadH (A0A0H2LZB5 entry or part of it): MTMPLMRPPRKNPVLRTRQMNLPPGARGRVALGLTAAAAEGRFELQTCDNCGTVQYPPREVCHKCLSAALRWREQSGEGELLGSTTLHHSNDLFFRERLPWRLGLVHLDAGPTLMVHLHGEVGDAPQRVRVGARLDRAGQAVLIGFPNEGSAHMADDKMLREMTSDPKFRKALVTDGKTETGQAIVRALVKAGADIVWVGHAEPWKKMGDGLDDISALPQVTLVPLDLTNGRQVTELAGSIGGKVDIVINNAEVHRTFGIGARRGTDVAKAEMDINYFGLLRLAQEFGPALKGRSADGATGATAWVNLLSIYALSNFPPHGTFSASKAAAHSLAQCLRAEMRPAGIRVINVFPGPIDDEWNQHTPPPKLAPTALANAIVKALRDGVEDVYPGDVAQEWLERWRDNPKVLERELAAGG
Experimental: (§1) ITC experiments were performed using a MicroCal PEAQ-ITC system (Malvern). All the experiments were performed at […] in a buffer containing 25 mM Tris-HCl (pH 7.5) and 150 mM NaCl (unless otherwise stated). […] Data was analyzed using the MicroCal PEAQ-ITC analysis software. All the measurements were repeated at least 2 times.

IadJ = IadJ (Variovorax paradoxus, UniProt A0A0H2M0A9); experiment: ITC, IAA binding to IadJ; set-up: species or system Variovorax paradoxus CL14
Chain of IadJ (A0A0H2M0A9 entry or part of it): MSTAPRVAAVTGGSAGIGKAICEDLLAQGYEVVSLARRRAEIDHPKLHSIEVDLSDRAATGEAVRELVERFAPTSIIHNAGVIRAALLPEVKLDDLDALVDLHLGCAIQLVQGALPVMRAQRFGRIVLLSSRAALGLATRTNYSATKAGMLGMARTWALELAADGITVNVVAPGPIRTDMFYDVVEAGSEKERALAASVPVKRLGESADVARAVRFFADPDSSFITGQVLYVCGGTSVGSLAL
Experimental: as §1

IadC [1] = biological target: T1, IadC (Variovorax paradoxus, UniProt C5CSP5); experiment: ITC, IAA binding to IadC; set-up: species or system Variovorax paradoxus CL14
T1 sequence (C5CSP5 1-330): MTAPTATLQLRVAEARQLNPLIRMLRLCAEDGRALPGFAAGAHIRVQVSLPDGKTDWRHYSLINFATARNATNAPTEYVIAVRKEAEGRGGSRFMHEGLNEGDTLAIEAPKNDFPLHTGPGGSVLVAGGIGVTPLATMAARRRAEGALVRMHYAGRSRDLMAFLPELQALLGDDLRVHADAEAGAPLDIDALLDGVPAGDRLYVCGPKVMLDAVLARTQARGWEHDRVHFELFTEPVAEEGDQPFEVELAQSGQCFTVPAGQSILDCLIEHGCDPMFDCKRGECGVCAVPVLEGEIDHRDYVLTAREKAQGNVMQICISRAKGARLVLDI
Experimental: as §1

IadK3 point mutants = experiment: IAA binding to IadK3 point mutants (response to reviewers); set-up: species or system Variovorax paradoxus CL14; conditions: pocket residues replaced by those of IadK2
Source text: We have performed point mutations for substitute residues in the potential ligand binding pocket of AdgA (now named as IadK3) with corresponding amino acids of AdgB (now named as IadK2). […] One potential explanation could be that residues beyond the putative ligand binding pocket may regulate the conformation of IadK3 and ligand binding specificity. Further studies would be required to further examined the ligand binding specificity of IadK3.

IadC [2] = biological target: T1, IadC; experiment: In vitro IAA transformation assay, IadC alone; type: biochemical, Variovorax paradoxus CL14; conditions: result in words
Experimental: In vitro assay was performed to test the capability of IadC/D/E enzymes encoded by the iad operon in transforming IAA and analogs. The reaction mixture was composed of 100 mM Tris-HCl (pH7.5), 250 μM reduced NADH, 10 μM ammonium iron (II) sulfate, and 3 μM of each enzyme component. […] The mixture was vortexed periodically to introduce oxygen for the reaction and was boiled to stop the reaction. After pelleting the precipitants, the supernatant was collected and mixed with 2 volumes of Salkowski reagent made of 0.5 M ferric chloride and 35% perchloric acid for the quantification of residual substrate by measuring the adsorption at 530 nm.

Iad proteins = experiment: Thermal shift assay (TSA), other Iad proteins with IAA; type: binding, Variovorax paradoxus CL14; conditions: for ΔTm: replicates
Experimental: (§2) Ligands concentrations were tested at 2- to […] excess (10 to 1,000 μM) relative to the proteins (5 μM). The fluorescence dye SYPRO Orange at a final of 200-fold dilution was used to monitor the unfolding of proteins. The protein and ligand were incubated for 10 min at room temperature before the addition of SYPRO Orange dye. The QuantStudio 1 Plus real-time PCR system (Thermo Fisher) was used to control the temperature increasing from […] to […] with an increment of […] and to monitor the fluorescence (excitation: 520 ± 10 nm and emission: 558 ± 10 nm). Each tested group was run in triplicate and repeated. Data was imported to the Protein Thermal Shift software for analysis and plotting.

MarR = biological target: MarR; set-up: method as in Conway et al. 2022; conditions: MarR domains, high affinity IAA binding; ref Conway et al. 2022; cited from earlier work
IadK2 [3] = biological target: IadK2 (Variovorax paradoxus, UniProt T1X8R6); experiment: ITC, auxins binding to IadK2
Chain of IadK2 (Variovorax paradoxus, UniProt T1X8R6) (T1X8R6 entry or part of it): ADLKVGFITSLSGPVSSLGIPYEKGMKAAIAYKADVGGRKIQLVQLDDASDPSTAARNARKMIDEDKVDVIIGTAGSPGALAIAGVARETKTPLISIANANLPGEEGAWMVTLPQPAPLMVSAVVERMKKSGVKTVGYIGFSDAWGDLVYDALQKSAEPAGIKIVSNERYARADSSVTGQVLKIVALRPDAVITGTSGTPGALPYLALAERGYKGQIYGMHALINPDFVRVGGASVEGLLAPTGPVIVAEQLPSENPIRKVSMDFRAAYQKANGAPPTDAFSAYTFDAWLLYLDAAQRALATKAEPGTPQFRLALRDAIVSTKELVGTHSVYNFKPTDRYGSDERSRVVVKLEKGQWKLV
Experimental: as §1

IadI = IadI (Variovorax paradoxus, UniProt A0A0H2M433); experiment: ITC, IAA binding to IadI; set-up: species or system Variovorax paradoxus CL14
Chain of IadI (A0A0H2M433 entry or part of it): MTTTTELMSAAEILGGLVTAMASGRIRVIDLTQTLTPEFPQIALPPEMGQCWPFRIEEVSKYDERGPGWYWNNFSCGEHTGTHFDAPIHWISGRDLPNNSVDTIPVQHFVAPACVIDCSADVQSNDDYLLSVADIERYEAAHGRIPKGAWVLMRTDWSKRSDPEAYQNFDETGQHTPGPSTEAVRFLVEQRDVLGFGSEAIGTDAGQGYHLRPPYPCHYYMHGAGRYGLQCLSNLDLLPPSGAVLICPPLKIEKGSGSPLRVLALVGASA
Experimental: as §1

IadG = experiment: ITC, IAA binding to IadG; set-up: species or system Variovorax paradoxus CL14
Experimental: as §1

IadK2 mutants [4] = biological target: IadK2 mutants (Variovorax paradoxus, UniProt T1X8R6, S104V); experiment: ITC, IAA binding to IadK2 mutants; set-up: species or system Variovorax paradoxus CL14; conditions: Kd
Chain of IadK2 mutants (Variovorax paradoxus, UniProt T1X8R6, S104V) (T1X8R6 entry or part of it S104V): as the sequence (T1X8R6 entry or part of it) above, with S77V counted along it
Experimental: as §1

IadK2 mutants [5] = experiment: ITC, IAA binding to IadK2 mutants; set-up: species or system Variovorax paradoxus CL14; conditions: IadK2 mutant W172L, replicates
Experimental: as §1

IadK3 = IadK3 (Variovorax paradoxus, UniProt A0A0H2LZ84); experiment: ITC, auxins binding to IadK3; set-up: species or system Variovorax paradoxus CL14
Chain of IadK3 (A0A0H2LZ84 entry or part of it): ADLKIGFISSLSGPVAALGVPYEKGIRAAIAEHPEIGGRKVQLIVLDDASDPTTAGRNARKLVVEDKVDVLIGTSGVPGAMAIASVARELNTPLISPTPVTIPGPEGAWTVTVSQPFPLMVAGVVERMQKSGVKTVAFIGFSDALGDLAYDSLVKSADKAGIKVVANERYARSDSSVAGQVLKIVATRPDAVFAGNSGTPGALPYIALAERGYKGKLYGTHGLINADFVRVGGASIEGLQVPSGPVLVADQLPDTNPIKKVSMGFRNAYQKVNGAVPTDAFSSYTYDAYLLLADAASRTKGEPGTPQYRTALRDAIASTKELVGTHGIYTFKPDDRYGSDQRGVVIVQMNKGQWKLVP
Experimental: as §1

IadK2 mutants [6] = experiment: Thermal shift assay (TSA), IadK2 mutants and IAA; type: binding, Variovorax paradoxus CL14; set-up: unit not given here; conditions: replicates
Experimental: as §2

IadK2 [7] = experiment: Thermal shift assay (TSA), IadK2 with IAA and analogs; type: binding, Variovorax paradoxus CL14
Experimental: as §2

Question: For `O=C(O)Cc1c[nH]c2ccccc12` [IAA, indole-3-acetic acid], which “IAA binding (ITC)” value (IadH) is on record?
Answer: Its value is “no binding detected”.

Question: What about the Kd (IadH; ITC, replicates) of the same compound?
Answer: Its Kd is > 100000 nM.

Question: And the “IAA binding (ITC)” value (IadJ)?
Answer: The value was “no binding detected”.

Question: And the Kd (IadJ; ITC, replicates)?
Answer: Its Kd is > 100000 nM.

Question: And the “IAA binding (ITC)” value (IadC [1])?
Answer: Its value is “no binding detected”.

Question: And the Kd (IadC [1]; ITC, replicates)?
Answer: The Kd was > 100000 nM.

Question: And the “binding of IAA to IadK3 point mutants” value (IadK3 point mutants)?
Answer: The value was “none of the mutations could make IadK3 bind with IAA”.

Question: And the “transformation by IadC alone” value (IadC [2])?
Answer: Its value is “neither IadD/E nor IadC alone could catalyze the transformation”.

Question: What about the “effect on melting temperature (TSA)” value (Iad proteins; Iad proteins other than IadK2, result in words) of the same compound?
Answer: The value was “no profound effects”.

Question: What about the ΔTm (Iad proteins; IadC with IAA) of the same compound?
Answer: Its ΔTm is -0.4983 °C and 0.9966 °C and 0 °C.

Question: And the ΔTm (Iad proteins; IadF with IAA)?
Answer: Its ΔTm is 0.4983 °C and -0.9966 °C and 0 °C.

Question: What about the ΔTm (Iad proteins; IadG with IAA) of the same compound?
Answer: The ΔTm was 1.495 °C (2×) and 1.993 °C.

Question: What about the ΔTm (Iad proteins; IadH with IAA) of the same compound?
Answer: The ΔTm was 0.9966 °C and 0 °C and -0.4983 °C.

Question: What about the ΔTm (Iad proteins; IadI with IAA) of the same compound?
Answer: The ΔTm was 0.4983 °C and -0.4983 °C and -1.993 °C.

Question: What about the ΔTm (Iad proteins; IadJ with IAA) of the same compound?
Answer: Its ΔTm is 0 °C and 0.4983 °C and 1.495 °C.

Question: What about the Kd (MarR) of the same compound?
Answer: Its Kd is ~300 nM.

Question: And the Kd (IadK2 [3]; ITC, biphasic isotherm, IadK2 + IAA, mean ± SEM, 3 measurements, read-out: KD1)?
Answer: The Kd was 530 ± 80 nM.

Question: And the Kd (IadK2 [3]; ITC, biphasic isotherm, IadK2 + IAA, mean ± SEM, 3 measurements, read-out: KD2)?
Answer: The Kd was 9 ± 3.05 nM.

Question: What about the Kd (IadK2 [3]; IadK2, ITC, replicates, read-out: Kd1) of the same compound?
Answer: The Kd was 500 nM and 600 nM (2×).

Question: And the Kd (IadK2 [3]; IadK2, ITC, replicates, read-out: Kd2)?
Answer: Its Kd is 8.3 nM and 12 nM and 11.4 nM.

Question: And the “IAA binding (ITC)” value (IadI)?
Answer: The value was “no binding detected”.

Question: And the Kd (IadI; ITC, replicates)?
Answer: The Kd was > 100000 nM.

Question: What about the “IAA binding (ITC)” value (IadG) of the same compound?
Answer: The value was “no binding detected”.

Question: What about the Kd (IadG; ITC, replicates) of the same compound?
Answer: The Kd was > 100000 nM.

Question: And the Kd (IadK2 mutants [4]; IadK2 S104V, IAA, mean ± SD)?
Answer: Its Kd is 1100 ± 300 nM.

Question: What about the Kd (IadK2 mutants [4]; IadK2 mutant S104V, replicates) of the same compound?
Answer: The Kd was 880 nM and 900 nM and 1500 nM.

Question: And the Kd (IadK2 mutants [5])?
Answer: Its Kd is “weak binding”.

Question: And the Kd (IadK3; IadK3, ITC, replicates, read-out: ITC binding)?
Answer: Its Kd is > 100000 nM.

Question: And the “binding to IadK3 (ITC)” value (IadK3; result in words)?
Answer: Its value is “no obvious binding”.

Question: What about the “Tm change with IAA (TSA)” value (IadK2 mutants [6]; IadK2 A125G) of the same compound?
Answer: Its value is 2.99 and 2.492 and 3.488.

Question: And the “Tm change with IAA (TSA)” value (IadK2 mutants [6]; IadK2 A125T/N126P)?
Answer: Its value is 1.993 and 1.495 (2×).

Question: And the “Tm change with IAA (TSA)” value (IadK2 mutants [6]; IadK2 A249G)?
Answer: The value was 3.986 and 4.485 and 5.4814.

Question: What about the “Tm change with IAA (TSA)” value (IadK2 mutants [6]; IadK2 F168G) of the same compound?
Answer: Its value is 0.4983.

Question: And the “Tm change with IAA (TSA)” value (IadK2 mutants [6]; IadK2 F308G)?
Answer: The value was 1.495.

Question: What about the “Tm change with IAA (TSA)” value (IadK2 mutants [6]; IadK2 H248G) of the same compound?
Answer: Its value is 2.492 (2×) and 3.488.

Question: And the “Tm change with IAA (TSA)” value (IadK2 mutants [6]; IadK2 N126A)?
Answer: Its value is 3.488 (2×) and 2.99.

Question: And the “Tm change with IAA (TSA)” value (IadK2 mutants [6]; IadK2 R199A)?
Answer: Its value is 0.4983 and 0 (2×).

Question: What about the “Tm change with IAA (TSA)” value (IadK2 mutants [6]; IadK2 S014V/W172L) of the same compound?
Answer: The value was 0.

Question: And the “Tm change with IAA (TSA)” value (IadK2 mutants [6]; IadK2 S104A)?
Answer: Its value is 2.99 and 2.492 and 3.488.

Question: And the “Tm change with IAA (TSA)” value (IadK2 mutants [6]; IadK2 S104V)?
Answer: Its value is 2.492 and 1.495 and 1.993.

Question: What about the “Tm change with IAA (TSA)” value (IadK2 mutants [6]; IadK2 S224A) of the same compound?
Answer: The value was 2.99 and 3.986 (2×).

Question: And the “Tm change with IAA (TSA)” value (IadK2 mutants [6]; IadK2 W172A)?
Answer: Its value is 0.4983 and 0 (2×).

Question: What about the “Tm change with IAA (TSA)” value (IadK2 mutants [6]; IadK2 W172L) of the same compound?
Answer: The value was 0.

Question: What about the “Tm change with IAA (TSA)” value (IadK2 mutants [6]; IadK2 Y311A) of the same compound?
Answer: The value was 0.

Question: What about the “Tm change with IAA (TSA)” value (IadK2 [7]; IadK2 WT, replicates, Fig 2E) of the same compound?
Answer: The value was 5.98.

Question: And the ΔTm (IadK2 [7]; IadK2 with IAA, replicates)?
Answer: Its ΔTm is 5.98 °C.

Question: And the “stabilization of IadK2 (melting temperature, TSA)” value (IadK2 [7]; result in words)?
Answer: Its value is “substantially increased the melting temperature; also recorded: most significant stabilization effect”.
